Measured values reported in US20020082254A1, “Compounds for treating disorders where a decreased level of plasma FFA is desired” (priority 2000, published 2002).

Molecular target: T1, Hormone-sensitive lipase (HSL) (Homo sapiens, UniProt Q05469)
T1 sequence (Q05469 1-1076): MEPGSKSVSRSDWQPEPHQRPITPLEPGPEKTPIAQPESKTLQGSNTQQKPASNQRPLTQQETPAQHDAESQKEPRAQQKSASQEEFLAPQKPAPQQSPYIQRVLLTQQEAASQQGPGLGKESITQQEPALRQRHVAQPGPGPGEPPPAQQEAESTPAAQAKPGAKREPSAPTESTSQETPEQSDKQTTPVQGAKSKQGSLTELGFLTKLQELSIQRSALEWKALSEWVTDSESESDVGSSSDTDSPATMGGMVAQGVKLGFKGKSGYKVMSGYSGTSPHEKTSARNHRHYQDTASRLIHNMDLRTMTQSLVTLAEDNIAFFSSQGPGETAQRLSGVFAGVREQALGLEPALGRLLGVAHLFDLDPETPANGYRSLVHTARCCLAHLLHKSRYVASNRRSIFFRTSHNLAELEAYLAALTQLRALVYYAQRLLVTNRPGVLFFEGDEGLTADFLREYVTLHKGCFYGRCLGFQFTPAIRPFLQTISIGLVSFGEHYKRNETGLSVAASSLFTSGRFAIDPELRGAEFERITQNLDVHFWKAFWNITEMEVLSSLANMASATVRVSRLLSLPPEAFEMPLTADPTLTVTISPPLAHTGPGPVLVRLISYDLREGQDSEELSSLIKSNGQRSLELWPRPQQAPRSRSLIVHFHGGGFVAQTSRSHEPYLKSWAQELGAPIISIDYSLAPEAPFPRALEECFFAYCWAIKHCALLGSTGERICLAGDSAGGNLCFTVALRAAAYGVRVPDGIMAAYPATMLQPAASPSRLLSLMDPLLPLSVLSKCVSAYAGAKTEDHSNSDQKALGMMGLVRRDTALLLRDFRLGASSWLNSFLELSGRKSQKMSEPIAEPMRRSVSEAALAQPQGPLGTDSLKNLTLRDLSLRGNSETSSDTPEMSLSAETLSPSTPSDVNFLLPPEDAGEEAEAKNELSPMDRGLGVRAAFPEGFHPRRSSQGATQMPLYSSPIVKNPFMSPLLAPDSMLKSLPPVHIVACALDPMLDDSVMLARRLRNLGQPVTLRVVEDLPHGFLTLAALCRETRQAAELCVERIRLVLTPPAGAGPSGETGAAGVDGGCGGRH
Experiment: Hormone-sensitive lipase (HSL) inhibition assay, 3H-labeled triolein or MOME substrate
Assay type: biochemical
Conditions: read-out: HSL inhibition (IC50)
Outline: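 HSL enzyme (0.12 mg/ml stock) preincubated with inhibitor in PED-BSA, then given sonicated PC:PI-emulsified ³H-triolein or ³H-MOME in 0.1 M potassium phosphate pH 7 with BSA. 30 min at 37 °C; released radiolabelled fatty acid extracted in methanol/chloroform/heptane at pH 10.5 and scintillation counted.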

SMILES | IC50 [nM]
O=C(NN1CCc2ccccc2C1)Oc1ccc(Cl)cc1 [Example 6, (3,4-Dihydro-1H-isoquinolin-2-yl)-carbamic acid 4-chloro-phenyl Ester] | 19
CC1Cc2ccccc2CN1NC(=O)Oc1ccc(Cl)cc1 (stereo not drawn) [Example 23, (3-Methyl-3,4-dihydro-1H-isoquinolin-2-yl)-carbamic Acid 4-chloro-phenyl Ester] | 40
CC(C)(C)OC(=O)Nc1ccc(OC(=O)NN2CCc3ccccc3C2)cc1 [Example 17, (3,4-Dihydro-1H-isoquinolin-2-yl)-carbamic Acid 4-tert-butoxycarbonylamino-phenyl Ester] | 3
